Experimental findings from patent US9783552B2, “Soluble guanylate cyclase activators” (MERCK SHARP & DOHME CORP., priority 2013, dated 2017) are described below.

Test [1] deals with Spontaneously hypertensive rats (SHR). The experiment in a line: Acute Efficacy in Spontaneously Hypertensive Rats (SHR). It is filed as in vivo, rat. Particulars: single oral gavage. From the text:
Acute Efficacy in Spontaneously Hypertensive Rats (SHR)
Spontaneously hypertensive rats (SHR, male, Charles River) were implanted with DSI TA 11PA-C40 telemetry device (Data Sciences, Inc., St. Paul, Minn.) under isoflurane or ketamine/metomidine anesthesia. The telemetry unit catheter was inserted into the descending aorta via the femoral artery and the telemetry device was implanted subcutaneously in the left flank area. Animals were allowed to recover from surgery for 14 days before the start of any studies. Blood pressure, heart rate, and activity signals from conscious, freely moving rats were recorded continuously for 30 seconds every 10 min. On the day prior to administration of compound, a single oral dose of vehicle (10% transcutol/20% Cremophor/70% water) was administered to all animals to establish baseline control data. The blood pressure lowering efficacy of compound (PO) or vehicle was evaluated following a single oral gavage. Data were collected as hourly averages, and changes in blood pressure were calculated by subtracting control baseline data on an hourly basis. Animals were maintained on normal diet with a 12 h light-dark cycle.
Maximum peak decreases of systolic blood pressure (SBP) in SHR at a particular P.O. dose (mpk milligrams per kilogram) for the following Example compounds are provided. Category A=SBP in SHRs<25 mmHg; Category B=SBP in SHRs 25-40 mmHg; Category C=SBP in SHRs>40 mmHg.

For a further test, the target named is T1, sGC α1/β1 heterodimer (Homo sapiens, UniProt Q02108+Q02153).
T1 construct: expressed in transfected cells
T1 sequence (Q02108 1-690): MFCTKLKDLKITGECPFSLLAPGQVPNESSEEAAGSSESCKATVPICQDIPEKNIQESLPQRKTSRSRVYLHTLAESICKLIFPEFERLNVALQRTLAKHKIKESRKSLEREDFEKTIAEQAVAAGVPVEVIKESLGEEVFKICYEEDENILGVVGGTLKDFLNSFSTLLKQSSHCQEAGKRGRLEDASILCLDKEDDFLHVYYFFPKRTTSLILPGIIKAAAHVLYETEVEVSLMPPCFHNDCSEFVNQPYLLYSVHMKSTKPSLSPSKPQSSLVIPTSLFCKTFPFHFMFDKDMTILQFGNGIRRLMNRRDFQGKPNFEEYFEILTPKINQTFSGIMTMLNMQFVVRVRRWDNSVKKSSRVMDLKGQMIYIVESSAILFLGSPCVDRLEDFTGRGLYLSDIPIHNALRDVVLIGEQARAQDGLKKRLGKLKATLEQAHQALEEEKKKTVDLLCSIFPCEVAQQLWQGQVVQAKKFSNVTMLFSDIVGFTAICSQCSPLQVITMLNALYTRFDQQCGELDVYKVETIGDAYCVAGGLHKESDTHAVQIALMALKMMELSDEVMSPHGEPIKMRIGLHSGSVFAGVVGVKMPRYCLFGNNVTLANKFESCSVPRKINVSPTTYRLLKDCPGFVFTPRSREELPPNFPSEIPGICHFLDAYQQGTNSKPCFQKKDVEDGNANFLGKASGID
T1 sequence (Q02153 1-619): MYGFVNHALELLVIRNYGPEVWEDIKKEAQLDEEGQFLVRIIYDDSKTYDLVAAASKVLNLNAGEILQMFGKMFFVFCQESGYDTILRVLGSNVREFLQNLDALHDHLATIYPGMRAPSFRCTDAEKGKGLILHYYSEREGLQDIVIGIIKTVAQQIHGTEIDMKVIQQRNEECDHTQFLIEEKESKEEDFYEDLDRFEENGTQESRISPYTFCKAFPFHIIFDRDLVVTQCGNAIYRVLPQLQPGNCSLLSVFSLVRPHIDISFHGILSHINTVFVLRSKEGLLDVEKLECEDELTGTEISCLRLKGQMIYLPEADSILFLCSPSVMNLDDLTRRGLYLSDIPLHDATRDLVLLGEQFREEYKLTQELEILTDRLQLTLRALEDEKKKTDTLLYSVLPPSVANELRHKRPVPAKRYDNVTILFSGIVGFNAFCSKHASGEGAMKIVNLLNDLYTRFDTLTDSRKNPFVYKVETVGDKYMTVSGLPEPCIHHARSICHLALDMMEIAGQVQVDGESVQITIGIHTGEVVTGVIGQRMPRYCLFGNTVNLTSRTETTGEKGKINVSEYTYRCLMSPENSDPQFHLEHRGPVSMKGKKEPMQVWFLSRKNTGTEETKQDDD
The experiment in a line: Cell-Based sGC Functional Assay (CASA Assay). Particulars: CHO-K1/sGC cells; for EC50: intracellular cGMP by HTRF, 1 hr at 37° C., IP from 4P fit, presence or absence of 1 μM DETA-NO not given; for Emax: cGMP as percentage of maximum cGMP production of Compound A (=100% activation), read-out: % ACT (percent activation). Put shortly:
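CHO-K1 cells stably expressing human sGC α1/β1 were incubated with compound (2.5% DMSO) for 1 hr at 37 °C with 0.5 mM IBMX, with or without 1 μM DETA-NO. Intracellular cGMP was measured by HTRF and expressed as % of the maximal cGMP produced by a reference sGC heme-dependent activator. IP and maximum fold induction came from a 4-parameter fit.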
On the technique in general: Time-resolved FRET reads energy transfer from a long-lived donor to a nearby acceptor.

In general, EC50 refers to the concentration at which the effect is half-maximal. Higher therefore signals a need for much substance. On to `Cn1ncc2c(-c3nc(N)c4c(n3)NC(=O)C4(C)C(=O)NC3CC3)nc(CCC(F)(F)C(F)(F)F)nc21` (single isomer, unassigned) [Example 31, 4-Amino-N-cyclopropyl-5-methyl-2-(1-methyl-6-(3,3,4,4,4-pentafluorobutyl)-1H-pyrazolo[3,4-d]pyrimidin-4-yl)-6-oxo-6,7-dihydro-5H-pyrrolo[2,3-d]pyrimidine-5-carboxamide], for which the “Maximum peak decrease of systolic blood pressure (SBP) in SHR, Category” value (“Maximum peak decrease” for short) in test [1] (Dose 0.3 mpk P.O.) is given as “B (Category B=SBP in SHRs 25-40 mmHg)”. In addition, on sGC α1/β1 heterodimer, the EC50 turned out to be 190 nM and the Emax was 132%.
In the case of `Cn1ccc2c(-c3nc(N)c4c(n3)NC(=O)C4(C)c3ccccc3)nc(CCC(F)(F)C(F)(F)F)nc21` (single isomer, unassigned) [Example 62, 4-Amino-5,7′-dimethyl-2′-(3,3,4,4,4-pentafluorobutyl)-5-phenyl-5H,7′H-[2,4′-bipyrrolo[2,3-d]pyrimidin]-6(7H)-one], the “Maximum peak decrease” value in test [1] (Dose 1 mpk P.O.) is “A (Category A=SBP in SHRs<25 mmHg)”. On sGC α1/β1 heterodimer, the EC50 came to 19 nM and the Emax stood at 92%.
On the same counts, the results for `[2H]C([2H])([2H])n1ncc2c(-c3nc(N)c4c(n3)NC(=O)C4(C)C(=O)NC3CC3)nc(CCC(F)(F)C(F)(F)F)nc21` (single isomer, unassigned) [Example 32, 4-Amino-N-cyclopropyl-5-methyl-2-(6-(3,3,4,4,4-pentafluorobutyl)-1-trideuteriomethyl-1H-pyrazolo[3,4-d]pyrimidin-4-yl)-6-oxo-6,7-dihydro-5H-pyrrolo[2,3-d]pyrimidine-5-carboxamide] are “A (Category A=SBP in SHRs<25 mmHg)”, 52 nM and 131%.
For the compound `Cn1ncc2c(-c3nc(N)c4c(n3)NC(=O)C4(C)c3ccc(F)cc3)nc(Cc3cccc(F)c3F)nc21` (single isomer, unassigned) [Example 6, 4-Amino-2-(6-(2,3-difluorobenzyl)-1-methyl-1H-pyrazolo[3,4-d]pyrimidin-4-yl)-5-(4-fluorophenyl)-5-methyl-5H-pyrrolo[2,3-d]pyrimidin-6(7H)-one], in test [1] (Dose 3 mpk P.O.), the “Maximum peak decrease” value is on record as “A (Category A=SBP in SHRs<25 mmHg)”. For the same compound, on sGC α1/β1 heterodimer, the EC50 is 157 nM and the Emax came to 127%.
For `Cn1ccc2c(-c3nc(N)c4c(n3)NC(=O)C4(C)c3ccc(F)cc3)nc(CCC(F)(F)C(F)(F)F)nc21` (single isomer, unassigned) [Example 61, 4-Amino-5-(4-fluorophenyl)-5,7′-dimethyl-2′-(3,3,4,4,4-pentafluorobutyl)-5H,7′H-[2,4′-bipyrrolo[2,3-d]pyrimidin]-6(7H)-one], the “Maximum peak decrease” value in test [1] (Dose 1 mpk P.O.) is reported as “A (Category A=SBP in SHRs<25 mmHg)”. Besides, at sGC α1/β1 heterodimer, the EC50 is 61 nM and the Emax was found to be 91%.
On the same counts, the results for `Cn1ncc2c(-c3nc(N)c4c(n3)NC(=O)C4(C)c3ccc(F)cc3)nc(CCC(F)(F)C(F)(F)F)nc21` (single isomer, unassigned) [Example 9, 4-Amino-5-(4-fluorophenyl)-5-methyl-2-(1-methyl-6-(3,3,4,4,4-pentafluorobutyl)-1H-pyrazolo[3,4-d]pyrimidin-4-yl)-5H-pyrrolo[2,3-d]pyrimidin-6(7H)-one] are “C (Category C=SBP in SHRs>40 mmHg)”, 46 nM and 110%.
On the same counts, the results for `[2H]C([2H])([2H])n1ncc2c(-c3nc(N)c4c(n3)NC(=O)C4(C)c3ccc(F)cc3)nc(CCC(F)(F)C(F)(F)F)nc21` (single isomer, unassigned) [Example 2, 4-Amino-5-(4-fluorophenyl)-5-methyl-2-(6-(3,3,4,4,4-pentafluorobutyl)-1-trideuteriomethyl-1H-pyrazolo[3,4-d]pyrimidin-4-yl)-5H-pyrrolo[2,3-d]pyrimidin-6(7H)-one] are “C (Category C=SBP in SHRs>40 mmHg)”, 32 nM and 97%.
For the compound `[2H]C([2H])([2H])n1nnc2c(-c3nc(N)c4c(n3)NC(=O)C4(C)c3ccc(F)cc3)nc(CCC(F)(F)C(F)(F)F)nc21` (single isomer, unassigned) [Example 67, 4-Amino-5-(4-fluorophenyl)-5-methyl-2-(5-(3,3,4,4,4-pentafluorobutyl-3-trideuteriomethyl)-3H-[1,2,3]triazolo[4,5-d]pyrimidin-7-yl)-5H-pyrrolo[2,3-d]pyrimidin-6(7H)-one], the “Maximum peak decrease” value in test [1] (Dose 1 mpk P.O.) is listed as “A (Category A=SBP in SHRs<25 mmHg)”. Also, on sGC α1/β1 heterodimer, it took 1070 nM to reach a half-maximal effect (EC50) and the Emax is 114%.
Take `C#CC1(CC)C(=O)Nc2nc(-c3nc(CCC(F)(F)C(F)(F)F)nc4c3cnn4C)nc(N)c21` (single isomer, unassigned) [Example 23, 4-Amino-5-ethyl-5-ethynyl-2-(1-methyl-6-(3,3,4,4,4-pentafluorobutyl)-1H-pyrazolo[3,4-d]pyrimidin-4-yl)-5H-pyrrolo[2,3-d]pyrimidin-6(7H)-one]: at sGC α1/β1 heterodimer, the EC50 amounted to 49 nM and the Emax worked out at 106%.
`[2H]C([2H])([2H])n1ncc2c(-c3nc(N)c4c(n3)NC(=O)C4(C)c3cccc(O)c3)nc(CCC(F)(F)C(F)(F)F)nc21` (centres unmarked) [Example 44, 4-Amino-5-(3-hydroxyphenyl)-5-methyl-2-(6-(3,3,4,4,4-pentafluorobutyl)-1-trideuteriomethyl-1H-pyrazolo[3,4-d]pyrimidin-4-yl)-5H-pyrrolo[2,3-d]pyrimidin-6(7H)-one]: on sGC α1/β1 heterodimer, a half-maximal effect (EC50) was put at 111 nM and the Emax was determined as 88%.
The matching figures for `Cn1ncc2c(-c3nc(N)c4c(n3)NC(=O)C4(C)c3ccc(F)cc3)nc(CCC(F)(F)F)nc21` (single isomer, unassigned) [Example 11, 4-Amino-5-(4-fluorophenyl)-5-methyl-2-(1-methyl-6-(3,3,3-trifluoropropyl)-1H-pyrazolo[3,4-d]pyrimidin-4-yl)-5H-pyrrolo[2,3-d]pyrimidin-6(7H)-one]: 146 nM and 121%.
The matching figures for `CC1(c2ccc(F)cc2)C(=O)Nc2nc(-c3nc(CCC(F)(F)C(F)(F)F)nc4[nH]ncc34)nc(N)c21` (single isomer, unassigned) [Example 8, 4-Amino-5-(4-fluorophenyl)-5-methyl-2-(6-(3,3,4,4,4-pentafluorobutyl)-1H-pyrazolo[3,4-d]pyrimidin-4-yl)-5H-pyrrolo[2,3-d]pyrimidin-6(7H)-one]: 341 nM and 109%.
